{"source": "patent US20070244103A1", "about": "“Novel Compounds Having an Anti-Bacterial Activity” (Morphochem Aktiengesellschaft Fur Kombinatorische Chemie, priority 2004, published 2007)"}
{"test": "MIC of the examples against various organisms", "format": "cell-based", "conditions": "against at least two of the above organisms (12-strain panel)", "description": "The MIC (μg/ml) of the examples against various organisms was determined: A. baumannii ATCC19606, E. cloacae ATCC23355, E. coli ATCC25922, K. pneumoniae ATCC27736, P. mirabilis ATCC29906, P. aeruginosa ATCC27853, S. maltophilia ATCC13637, S. aureus ATCC43300, S. epidermidis ATCC14990, S. haemolyticus ATCC29970, E. faecalis ATCC29212 and E. faecium ATC19434.", "units": {"MIC": "µg/mL"}}
{"smiles": "COc1cnc2cccc(C(O)CN3C4CCC3CC(NCc3ccc5c(c3)NC(=O)CS5)C4)c2c1", "note": "(single isomer, unassigned) [Example 36, 6-({8-[2-Hydroxy-2-(3-methoxy-quinolin-5-yl)-ethyl]-8-aza-bicyclo[3.2.1]oct-3-ylamino}-methyl)-4H-benzo[1,4]thiazin-3-one]", "MIC": "≤ 2"}
{"smiles": "COc1ccc2nccc(C(O)CN3CCCC(CNCc4ccc5c(c4)OCCO5)C3)c2n1", "note": "(single isomer, unassigned) [Example 3, 2-(3-{[(2,3-Dihydro-benzo[1,4]dioxin-6-ylmethyl)-amino]-methyl}-piperidin-1-yl)-1-(6-methoxy-[1,5]-naphthyridin-4-yl)-ethanol]", "MIC": "≤ 2"}
{"smiles": "COc1ccc2nccc(C(O)CN3C4CCC3CC(NCc3ccc5c(c3)NC(=O)CS5)C4)c2n1", "note": "(single isomer, unassigned) [Example 13, 6-({8-[2-Hydroxy-2-(6-methoxy-[1,5]-naphthyridin-4-yl)-ethyl]-8-aza-bicyclo[3.2.1]oct-3-ylamino}-methyl)-4H-benzo[1,4]thiazin-3-one]", "MIC": "≤ 2"}
{"smiles": "COc1ccc2ncc(Cl)c(C(O)CN3CCCC(CNCc4ccc5c(c4)OCCO5)C3)c2c1", "note": "(single isomer, unassigned) [Example 66, 1-(3-Chloro-6-methoxy-quinolin-4-yl)-2-(3-{[(2,3-dihydro-benzo[1,4]dioxin-6-ylmethyl)-amino]-methyl}-piperidin-1-yl)-ethanol]", "MIC": "≤ 2"}
{"smiles": "COc1ccc2nccc(NC(=O)C3CCCC(CNCc4ccc5nsnc5c4)C3)c2n1", "note": "(centres unmarked) [Example 20, 3-{[(Benzo[1,2,5]thiadiazol-5-ylmethyl)-amino]-methyl}-cyclohexanecarboxylic acid (6-methoxy-[1,5]-naphthyridin-4-yl)-amide]", "MIC": "≤ 2"}
{"smiles": "COc1ccc2nccc(C(O)CN3C4CCC3CC(NCc3ccc5c(c3)OCCO5)C4)c2n1", "note": "(single isomer, unassigned) [Example 10, 2-{3-[(2,3-Dihydro-benzo[1,4]dioxin-6-ylmethyl)-amino]-8-aza-bicyclo[3.2.1]oct-8-yl}-1-(6-methoxy-[1,5]-naphthyridin-4-yl)-ethanol]", "MIC": "≤ 2"}
{"smiles": "COc1ccc2ncc(Cl)c(C(O)CN3C4CCC3CC(NCc3ccc5c(c3)OCO5)C4)c2c1", "note": "(single isomer, unassigned) [Example 61, 2-{3-[(Benzo[1,3]dioxol-5-ylmethyl)-amino]-8-aza-bicyclo[3.2.1]oct-8-yl}-1-(3-chloro-6-methoxy-quinolin-4-yl)-ethanol]", "MIC": "≤ 2"}
{"smiles": "COc1ccc2ncc(Cl)c(C(O)CN3CCOC(CNCc4ccc5c(c4)OCO5)C3)c2c1", "note": "(single isomer, unassigned) [Example 72, 2-(2-{[(Benzo[1,3]dioxol-5-ylmethyl)-amino]-methyl}-morpholin-4-yl)-1-(3-chloro-6-methoxy-quinolin-4-yl)-ethanol]", "MIC": "≤ 2"}
{"smiles": "COc1ccc2ncc(Cl)c(C(O)CN3CCOC(CNCc4cc5c(cc4F)SCC(=O)N5)C3)c2c1", "note": "(single isomer, unassigned) [Example 75, 6-[({4-[2-(3-Chloro-6-methoxy-quinolin-4-yl)-2-hydroxy-ethyl]-morpholin-2-ylmethyl}-amino)-methyl]-7-fluoro-4H-benzo[1,4]thiazin-3-one]", "MIC": "≤ 2"}
{"smiles": "COc1cnc2cccc(C(O)CN3CCCC(CNCc4ccc5c(n4)NC(=O)CS5)C3)c2c1", "note": "(single isomer, unassigned) [Example 42, 6-[({1-[2-Hydroxy-2-(3-methoxy-quinolin-5-yl)-ethyl]-piperidin-3-ylmethyl}-amino)-methyl]-4H-pyrido[3,2-b][1,4]thiazin-3-one]", "MIC": "≤ 2"}
{"smiles": "COc1cnc2cccc(C(O)CN3C4CCC3CC(NC/C=C/c3ccccc3)C4)c2c1", "note": "(centres unmarked) [Example 38, 1-(3-Methoxy-quinolin-5-yl)-2-[3-((E)-3-phenylallylamino)-8-aza-bicyclo[3.2.1]oct-8-yl]-ethanol]", "MIC": "≤ 2"}
{"smiles": "COc1cnc2cccc(C(O)CN3C4CCC3CC(NC/C=C/c3ccccc3)C4)c2n1", "note": "(centres unmarked) [Example 86, 1-(3-Methoxy-quinoxalin-5-yl)-2-[3-((E)-3-phenylallylamino)-8-aza-bicyclo[3.2.1]oct-8-yl]-ethanol]", "MIC": "≤ 2"}
{"smiles": "COc1ccc2nccc(NC(=O)C3CCCC(CNCc4ccc5c(c4)NC(=O)CS5)C3)c2n1", "note": "(centres unmarked) [Example 16, 3-{[(3-Oxo-3,4-dihydro-2H-benzo[1,4]thiazin-6-ylmethyl)-amino]-methyl}-cyclohexanecarboxylic acid (6-methoxy-[1,5]-naphthyridin-4-yl)-amide]", "MIC": "≤ 2"}
{"smiles": "COc1cnc2cccc(C(O)CN3C4CCC3CC(NCc3ccc5c(c3)OCCO5)C4)c2c1", "note": "(centres unmarked) [Example 39, 2-{3-[(2,3-Dihydro-benzo[1,4]dioxin-6-ylmethyl)-amino]-8-aza-bicyclo[3.2.1]oct-8-yl}-1-(3-methoxy-quinolin-5-yl)-ethanol]", "MIC": "≤ 2"}
{"smiles": "COc1ccc2nccc(C(O)CN3C4CCC3CC(NC/C=C/c3ccccc3)C4)c2n1", "note": "(single isomer, unassigned) [Example 14, 1-(6-Methoxy-[1,5]-naphthyridin-4-yl)-2-[3-((E)-3-phenyl-allylamino)-8-aza-bicyclo[3.2.1]oct-8-yl]-ethanol]", "MIC": "≤ 2"}
{"smiles": "COc1cnc2ccc(Cl)c(C(O)CN3CCCC(CNC/C=C/c4ccccc4)C3)c2n1", "note": "(centres unmarked) [Example 99, 1-(6-Chloro-3-methoxy-quinoxalin-5-yl)-2-{3-[((E)-3-phenyl-allylamino)-methyl]-piperidin-1-yl}-ethanol]", "MIC": "≤ 2"}
{"smiles": "COc1ccc2ncc(Cl)c(C(O)CN3C4CCC3CC(NCc3ccc5c(c3)NC(=O)CO5)C4)c2n1", "note": "(centres unmarked) [Example 27, 6-({8-[2-(3-Chloro-6-methoxy-[1,5]-naphthyridin-4-yl)-2-hydroxy-ethyl]-8-aza-bicyclo[3.2.1]oct-3-ylamino}-methyl)-4H-benzo[1,4]oxazin-3-one]", "MIC": "≤ 2"}
{"smiles": "COc1ccc2ncc(Cl)c(C(O)CN3CCOC(CNCc4ccc5c(c4)NC(=O)CO5)C3)c2c1", "note": "(single isomer, unassigned) [Example 71, 6-[({4-[2-(3-Chloro-6-methoxy-quinolin-4-yl)-2-hydroxy-ethyl]-morpholin-2-ylmethyl}-amino)-methyl]-4H-benzo[1,4]oxazin-3-one]", "MIC": "≤ 2"}
{"smiles": "COc1cnc2cccc(C(O)CN3C4CCC3CC(NC/C=C/c3ccccn3)C4)c2c1", "note": "(single isomer, unassigned) [Example 35, 1-(3-Methoxy-quinolin-5-yl)-2-[3-((E)-3-pyridin-2-yl-allylamino)-8-aza-bicyclo[3.2.1]oct-8-yl]-ethanol]", "MIC": "≤ 2"}
{"smiles": "COc1ccc2ncc(Cl)c(C(O)CN3CCOC(CNC/C=C/c4ccccc4)C3)c2c1", "note": "(single isomer, unassigned) [Example 77, 1-(3-Chloro-6-methoxy-quinolin-4-yl)-2-{2-[((E)-3-phenyl-allylamino)-methyl]-morpholin-4-yl}-ethanol]", "MIC": "≤ 2"}
{"smiles": "COc1cnc2cccc(C(O)CN3C4CCC3CC(NCc3ccc5nsnc5c3)C4)c2n1", "note": "(centres unmarked) [Example 82, 2-{3-[(Benzo[1,2,5]thiadiazol-5-ylmethyl)-amino]-8-aza-bicyclo[3.2.1]oct-8-yl}-1-(3-methoxy-quinoxalin-5-yl)-ethanol]", "MIC": "≤ 2"}
{"smiles": "COc1ccc2ncc(Cl)c(C(O)CN3C4CCC3CC(NCc3cc5c(cn3)OCCO5)C4)c2n1", "note": "(centres unmarked) [Example 30, 1-(3-Chloro-6-methoxy-[1,5]-naphthyridin-4-yl)-2-{3-[(2,3-dihydro-[1,4]dioxino[2,3-c]pyridin-7-ylmethyl)-amino]-8-aza-bicyclo[3.2.1]oct-8-yl}-ethanol]", "MIC": "≤ 2"}
{"smiles": "COc1cnc2cccc(C(O)CN3CCCC(CNCc4ccc5c(c4)OCCO5)C3)c2n1", "note": "(centres unmarked) [Example 92, 2-(3-{[(2,3-Dihydro-benzo[1,4]dioxin-6-ylmethyl)-amino]-methyl}-piperidin-1-yl)-1-(3-methoxy-quinoxalin-5-yl)-ethanol]", "MIC": "≤ 2"}
{"smiles": "COc1cnc2ccc(Cl)c(C(O)CN3CCCC(CNCc4cc5c(cc4F)SCC(=O)N5)C3)c2n1", "note": "(centres unmarked) [Example 98, 6-[({1-[2-(6-Chloro-3-methoxy-quinoxalin-5-yl)-2-hydroxy-ethyl]-piperidin-3-ylmethyl}-amino)-methyl]-7-fluoro-4H-benzo[1,4]thiazin-3-one]", "MIC": "≤ 2"}
{"smiles": "COc1ccc2ncc(Cl)c(C(O)CN3C4CCC3CC(NCc3ccc5c(c3)OCCO5)C4)c2n1", "note": "(centres unmarked) [Example 25, 1-(3-Chloro-6-methoxy-[1,5]-naphthyridin-4-yl)-2-{3-[(2,3-dihydro-benzo[1,4]dioxin-6-ylmethyl)-amino]-8-aza-bicyclo[3.2.1]oct-8-yl}-ethanol]", "MIC": "≤ 2"}
{"smiles": "COc1ccc2ncc(Cl)c(C(O)CN3C4CCC3CC(NCc3cc5c(cc3F)SCC(=O)N5)C4)c2c1", "note": "(single isomer, unassigned) [Example 60, 6-({8-[2-(3-Chloro-6-methoxy-quinolin-4-yl)-2-hydroxy-ethyl]-8-aza-bicyclo[3.2.1]oct-3-ylamino}-methyl)-7-fluoro-4H-benzo[1,4]thiazin-3-one]", "MIC": "≤ 2"}
{"smiles": "COc1ccc2ncc(Cl)c(C(O)CN3CCCC(CNCc4ccc5c(c4)OCO5)C3)c2c1", "note": "(single isomer, unassigned) [Example 65, 2-(3-{[(Benzo[1,3]dioxol-5-ylmethyl)-amino]-methyl}-piperidin-1-yl)-1-(3-chloro-6-methoxy-quinolin-4-yl)-ethanol]", "MIC": "≤ 2"}
{"smiles": "COc1cnc2cccc(C(O)CN3C4CCC3CC(NCc3ccc5c(c3)OCCO5)C4)c2n1", "note": "(centres unmarked) [Example 78, 2-{3-[(2,3-Dihydro-benzo[1,4]dioxin-6-ylmethyl)-amino]-8-aza-bicyclo[3.2.1]oct-8-yl}-1-(3-methoxy-quinoxalin-5-yl)-ethanol]", "MIC": "≤ 2"}
{"smiles": "COc1cnc2cccc(C(O)CN3CCCC(CNCc4ccc5c(c4)NC(=O)CO5)C3)c2c1", "note": "(single isomer, unassigned) [Example 45, 6-[({1-[2-Hydroxy-2-(3-methoxy-quinolin-5-yl)-ethyl]-piperidin-3-ylmethyl}-amino)-methyl]-4H-benzo[1,4]oxazin-3-one]", "MIC": "≤ 2"}
